Structures can show the parent of a compound that is named as a salt.
Test system: male spontaneously hypertensive rats
Test: Decrease in systolic blood pressure in spontaneously hypertensive rats after intravenous bolus injection, indirect (tail-cuff) method
Assay type: in vivo, rat
Conditions: for Decrease in systolic blood pressure (mmHg) time after administration (hour) 0.5: 0.5 hour after administration; for Decrease in systolic blood pressure (mmHg) time after administration (hour) 4: 4 hours after administration
Procedure: As test animals, four male spontaneously hypertensive rats (weight 400 to 440 g) that were sufficiently adapted for feeding and in which hypertension was confirmed were used.
Physiological saline aqueous solution containing 2.5% Nicolle and 2.5% ethanol of sample was intravenously administered by bolus injection at a dose of 1 ml per 1 kg of body weight. Systolic blood pressure after administration was measured by the indirect (tail-cuff) method.

| Molecule | Decrease in systolic blood pressure (mmHg) time after administration (hour) 0.5 (dose 10 mg/kg i.v. bolus) [mmHg] | Decrease in systolic blood pressure (mmHg) time after administration (hour) 4 (dose 10 mg/kg i.v. bolus) [mmHg] | also measured |
| --- | --- | --- | --- |
| COCC(=O)Oc1cccc(C=CCN2CCC(=C3c4ccccc4C=Cc4ccccc43)CC2)c1.Cl [Example 369, 4-(5H-Dibenzo[a,d]cyclohepten-5-ylidene)-1-(3-(2-methoxyacetoxy)cinnamyl)piperidine hydrochloride] | −101 | −83 |  |
| 2-(2-4-Dibenzo[a,d]cyclohepten-5-ylidene)-1-piperidinyl)-1-ethyl)-5′,6′-dimethoxy-1-indanone hydrochloride [Example 261] | −123 | −11 |  |
| Cl.Cl.Nc1ccc(CCCN2CCC(=C3c4ccccc4C=Cc4ccccc43)CC2)cc1 [Example 248, 1-(4-Aminophenyl)-3-(4-(5H-Dibenzo[a,d]cyclohepten-5-ylidene)-1-piperidinyl)propane dihydrochloride] | −101 | −92 |  |
| C1=Cc2ccccc2C(=C2CCN(CCCc3cccnc3)CC2)c2ccccc21.Cl.Cl [Example 270, 3-(4-(5H-Dibenzo[a,d]cyclohepten-5-ylidene)-1-piperidinyl)-1-(3-pyridyl)propane dihydrochloride] | −18 | 2 |  |
| 5-(4-(5H-Dibenzo[a,d]cyclohepten-5-ylidene)-1-piperidinyl-2-(3,4-dimethoxyphenyl)valeronitrile hydrochloride [Example 123] | −55 | −7 |  |
| COc1ccc(CCCN2CCC(=C3c4ccccc4C=Cc4ccccc43)CC2)cc1OC.Cl [Example 201, 4-(5H-Dibenzo[a,d]cyclohepten-5-ylidene)-1-(-3-(3′,4′-dimethoxyphenyl)propyl)piperidine hydrochloride] | −118 | −21 |  |
| 1-Acetoxy-4-(4-(5H-dibenzo[a,d]cyclohepten-5-ylidene)-1-piperidinyl)-(3,4-dimethoxy)phenylButane hydroxybutane hydrochloride [Example 206] | −61 | −27 |  |
| COc1cccc(CN2CCC(=C3c4ccccc4C=Cc4ccccc43)CC2)c1.Cl [Example 118, 4-(5H-Dibenzo[a,d]cyclohepten-5-ylidene)-1-(3-methoxybenzyl)piperidine hydrochloride] | −129 | −24 |  |
| Cl.Fc1ccc(C2(CCCN3CCC(=C4c5ccccc5C=Cc5ccccc54)CC3)OCCO2)cc1 [Example 124] | −90 | −20 |  |
| COc1cc(C=CCN2CCC(=C3c4ccccc4C=Cc4ccccc43)CC2)ccc1OC(C)=O.Cl [Example 366, 1-(4-Acetoxy-3-methoxycinnamyl)-4-(5H-Dibenzo[a,d]cyclohepten-5-ylidene)-1-piperidine hydrochloride] |  |  | Decrease in systolic blood pressure (mmHg) time after administration (hour) 0.5 (dose 3 mg/kg i.v. bolus): −152 mmHg; Decrease in systolic blood pressure (mmHg) time after administration (hour) 4 (dose 3 mg/kg i.v. bolus): −113 mmHg |
| O=C(CCCC1CCCCC1)N1CCC(=C2c3ccccc3C=Cc3ccccc32)CC1 [Example 157, 1-(4-Cyclohexylbutanoyl)-4-(5H-dibenzo[a,d]cyclohepten-5-ylidene)piperidine] | −32 | −13 |  |
| C(=Cc1ccccc1)CN1CCC(=C2c3ccccc3C=Cc3ccccc32)CC1.Cl [Example 38, 1-Cinnamyl-4-(5H-dibenzo[a, d]cyclohepten-5-ylidene)piperidine hydrochloride] | −140 | −76 |  |
| Cl.c1ccc2c(c1)Oc1ccccc1C2=C1CCN(CCCCC2CCCCC2)CC1 [Example 181] | −56 | −27 |  |
| Cl.Cl.Nc1cccc(CCCN2CCC(=C3c4ccccc4C=Cc4ccccc43)CC2)c1 [Example 315, 1-(3-Aminophenyl)-3-(4-(5H-dibenzo[a,d]cyclohepten-5-ylidene)-1-piperidinyl)propane dihydrochloride] | −43 | −3 |  |
| Cl.Oc1ccc(C=CCN2CCC(=C3c4ccccc4C=Cc4ccccc43)CC2)cc1 [Example 363, 4-(5H-Dibenzo[a,d]cyclohepten-5-ylidene)-1-(4-hydroxycinnamyl)piperidine hydrochloride] |  |  | Decrease in systolic blood pressure (mmHg) time after administration (hour) 0.5 (dose 3 mg/kg i.v. bolus): −120 mmHg |
| COc1ccc(C(=O)NCCN2CCC(=C3c4ccccc4C=Cc4ccccc43)CC2)cc1OC.Cl [Example 242, N-(2-(5H-Dibenzo[a,d]cyclohepten-5-ylidene)-1-piperidinyl)ethyl-3′,4′-dimethoxybenzamide hydrochloride] | −28 | 7 |  |
| 4-(5H-Dibenzo[a,d]cyclohepten-5-ylidene)-1-(4-N-imidazolylmethyl)cinnamyl)piperidine dihydroxybutane hydrochloride [Example 210] |  |  | Decrease in systolic blood pressure (mmHg) time after administration (hour) 0.5 (dose 1 mg/kg i.v. bolus): −78 mmHg; Decrease in systolic blood pressure (mmHg) time after administration (hour) 4 (dose 1 mg/kg i.v. bolus): −69 mmHg |
| Cl.N#Cc1ccc(C=CCN2CCC(=C3c4ccccc4C=Cc4ccccc43)CC2)cc1 [Example 346, 1-(4-Cyanocinnamyl)-4-(5H-Dibenzo[a,d]cyclohepten-5-ylidene)-1-piperidine hydrochloride] |  |  | Decrease in systolic blood pressure (mmHg) time after administration (hour) 0.5 (dose 3 mg/kg i.v. bolus): −142 mmHg; Decrease in systolic blood pressure (mmHg) time after administration (hour) 4 (dose 3 mg/kg i.v. bolus): −121 mmHg |
| Cl.Cl.Nc1cccc(CN2CCC(=C3c4ccccc4C=Cc4ccccc43)CC2)c1 [Example 139, 1-(3-Aminobenzy)-4-(5H-Dibenzo[a,d]cyclohepten-5-ylidene)piperidine dihydrochloride] | −139 | −89 |  |
| C1=Cc2ccccc2C(=C2CCN(CCCCCC3CCCCC3)CC2)c2ccccc21 [Example 11, 1-Cyclohexyl-5-(4-(5H-dibenzo[a,d]cyclohepten-5-ylidene)-1-piperidinyl)pentane hydrochloride] | −166 |  |  |
| Cl.Fc1ccc(CN2CCC(=C3c4ccccc4C=Cc4ccccc43)CC2)cc1 [Example 113, 4-(5H-Dibenzo[a,d]cyclohepten-5-ylidene)-1-(4-fluorobenzyl)piperidine hydrochloride] |  |  | Decrease in systolic blood pressure (mmHg) time after administration (hour) 0.5 (dose 1 mg/kg i.v. bolus): −151 mmHg; Decrease in systolic blood pressure (mmHg) time after administration (hour) 4 (dose 1 mg/kg i.v. bolus): −81 mmHg |
| O=C(c1cccc2ccccc12)N1CCC(=C2c3ccccc3C=Cc3ccccc32)CC1 [Example 213, 4-(5H-Dibenzo[a,d]cyclohepten-5-ylidene)-1-(1-naphthoyl)piperidine] | −82 | 3 |  |

Reference: USRE38257E1, “Piperdine derivatives and hypotensives containing the same” (Ajinomoto Co., Inc., priority 1988, dated 2003)
